The NIST ThermoML archive (doi:10.1016/j.fluid.2017.04.007)
± gives the expanded uncertainty stated by the source.

How the values were obtained:
[1] = Crystal; DTA
[2] = Molar enthalpy of transition or fusion; conditions: Crystal; DSC
[3] = xn = mol fraction of the nth substance listed; conditions: 101 kPa, Liquid, Vibrating tube method

SMILES: CCCCCCCCCC(=O)O [decanoic acid]
- Normal melting temperature [1]: 31.60 ± 0.41 °C
- Molar enthalpy of transition or fusion [2]: 27.5 ± 2.6 kJ/mol

SMILES: CCCCCCCCCCCC(=O)O [dodecanoic acid]
- Normal melting temperature [1]: 44.33 ± 0.66 °C
- Molar enthalpy of transition or fusion [2]: 37.8 ± 0.84 kJ/mol

SMILES: CCCCCCCCCCCCCCCC(=O)O [hexadecanoic acid]
- Normal melting temperature [1]: 63.69 ± 0.53 °C
- Molar enthalpy of transition or fusion [2]: 51 ± 1.1 kJ/mol

SMILES: CCCCCCCCCCCCCCCCCC(=O)O [octadecanoic acid]
- Normal melting temperature [1]: 70.52 ± 0.45 °C
- Molar enthalpy of transition or fusion [2]: 61.4 ± 1.4 kJ/mol

SMILES: CCCCCCCCCCCCCC(=O)O [tetradecanoic acid]
- Normal melting temperature [1]: 53.88 ± 0.39 °C
- Molar enthalpy of transition or fusion [2]: 41.3 ± 1.1 kJ/mol

SMILES: CC[N+](CC)(CC)CC.[Cl-] [tetraethylammonium chloride]
- Normal melting temperature [1]: 253.63 ± 2.1 °C
- Molar enthalpy of transition or fusion [2]: 51.2 ± 1.1 kJ/mol

SMILES: CC[N+](CC)(CC)CC.[Cl-] [tetraethylammonium chloride] + O
- mass density ([3]; 298.15 K, x1 = 0.0173): 1000.2 ± 0.1 kg/m3
- mass density ([3]; 298.15 K, x1 = 0.0403): 1005.7 ± 0.1 kg/m3
- mass density ([3]; 298.15 K, x1 = 0.0727): 1014.9 ± 0.1 kg/m3
- mass density ([3]; 298.15 K, x1 = 0.1213): 1027 ± 0.1 kg/m3
- mass density ([3]; 298.15 K, x1 = 0.1994): 1035.4 ± 0.2 kg/m3
- mass density ([3]; 308.15 K, x1 = 0.0173): 996.7 ± 0.1 kg/m3
- mass density ([3]; 308.15 K, x1 = 0.0403): 1001.1 ± 0.1 kg/m3
- mass density ([3]; 308.15 K, x1 = 0.0727): 1009.5 ± 0.1 kg/m3
- mass density ([3]; 308.15 K, x1 = 0.1213): 1020.8 ± 0.1 kg/m3
- mass density ([3]; 308.15 K, x1 = 0.1994): 1029.1 ± 0.2 kg/m3
- mass density ([3]; 318.15 K, x1 = 0.0173): 992.3 ± 0.1 kg/m3
- mass density ([3]; 318.15 K, x1 = 0.0403): 996.5 ± 0.1 kg/m3
- mass density ([3]; 318.15 K, x1 = 0.0727): 1003.9 ± 0.1 kg/m3
- mass density ([3]; 318.15 K, x1 = 0.1213): 1014.4 ± 0.1 kg/m3
- mass density ([3]; 318.15 K, x1 = 0.1994): 1022.8 ± 0.2 kg/m3
- mass density ([3]; 328.15 K, x1 = 0.0403): 990.9 ± 0.1 kg/m3
- mass density ([3]; 328.15 K, x1 = 0.0727): 998.3 ± 0.1 kg/m3
- mass density ([3]; 328.15 K, x1 = 0.1213): 1008 ± 0.1 kg/m3
- mass density ([3]; 328.15 K, x1 = 0.1994): 1016.4 ± 0.2 kg/m3
- mass density ([3]; 338.15 K, x1 = 0.0403): 982.8 ± 0.1 kg/m3
- mass density ([3]; 338.15 K, x1 = 0.0727): 992.2 ± 0.1 kg/m3
- mass density ([3]; 338.15 K, x1 = 0.1213): 1001.5 ± 0.1 kg/m3
- mass density ([3]; 338.15 K, x1 = 0.1994): 1010 ± 0.1 kg/m3
- mass density ([3]; 348.15 K, x1 = 0.0403): 971.4 ± 0.1 kg/m3
- mass density ([3]; 348.15 K, x1 = 0.0727): 985.7 ± 0.1 kg/m3
- mass density ([3]; 348.15 K, x1 = 0.1213): 995.1 ± 0.1 kg/m3
- mass density ([3]; 348.15 K, x1 = 0.1994): 1003.4 ± 0.1 kg/m3
- mass density ([3]; 358.15 K, x1 = 0.0403): 953.1 ± 0.2 kg/m3
- mass density ([3]; 358.15 K, x1 = 0.0727): 977.1 ± 0.1 kg/m3
- mass density ([3]; 358.15 K, x1 = 0.1213): 988.4 ± 0.1 kg/m3
- mass density ([3]; 358.15 K, x1 = 0.1994): 997.2 ± 0.1 kg/m3

SMILES: C[N+](C)(C)C.[Cl-] [tetramethylammonium chloride]
- Normal melting temperature [1]: 339.72 ± 12 °C

SMILES: C[N+](C)(C)C.[Cl-] [tetramethylammonium chloride] + O
- mass density ([3]; 298.15 K, x1 = 0.026): 1001.5 ± 0.1 kg/m3
- mass density ([3]; 298.15 K, x1 = 0.06): 1005.7 ± 0.1 kg/m3
- mass density ([3]; 298.15 K, x1 = 0.1062): 1012.8 ± 0.1 kg/m3
- mass density ([3]; 298.15 K, x1 = 0.1731): 1022.5 ± 0.2 kg/m3
- mass density ([3]; 298.15 K, x1 = 0.2831): 1034.1 ± 0.3 kg/m3
- mass density ([3]; 308.15 K, x1 = 0.026): 998.1 ± 0.1 kg/m3
- mass density ([3]; 308.15 K, x1 = 0.06): 1001.7 ± 0.1 kg/m3
- mass density ([3]; 308.15 K, x1 = 0.1062): 1008.6 ± 0.1 kg/m3
- mass density ([3]; 308.15 K, x1 = 0.1731): 1018.1 ± 0.2 kg/m3
- mass density ([3]; 308.15 K, x1 = 0.2831): 1029.5 ± 0.3 kg/m3
- mass density ([3]; 318.15 K, x1 = 0.06): 997.5 ± 0.1 kg/m3
- mass density ([3]; 318.15 K, x1 = 0.1062): 1004.1 ± 0.1 kg/m3
- mass density ([3]; 318.15 K, x1 = 0.1731): 1013.5 ± 0.2 kg/m3
- mass density ([3]; 318.15 K, x1 = 0.2831): 1025 ± 0.3 kg/m3
- mass density ([3]; 328.15 K, x1 = 0.06): 991.3 ± 0.1 kg/m3
- mass density ([3]; 328.15 K, x1 = 0.1062): 999.5 ± 0.1 kg/m3
- mass density ([3]; 328.15 K, x1 = 0.1731): 1008.9 ± 0.2 kg/m3
- mass density ([3]; 328.15 K, x1 = 0.2831): 1020.3 ± 0.3 kg/m3
- mass density ([3]; 338.15 K, x1 = 0.06): 985.1 ± 0.1 kg/m3
- mass density ([3]; 338.15 K, x1 = 0.1062): 993.1 ± 0.1 kg/m3
- mass density ([3]; 338.15 K, x1 = 0.1731): 1004 ± 0.2 kg/m3
- mass density ([3]; 338.15 K, x1 = 0.2831): 1015.7 ± 0.2 kg/m3
- mass density ([3]; 348.15 K, x1 = 0.06): 975.6 ± 0.1 kg/m3
- mass density ([3]; 348.15 K, x1 = 0.1062): 986.6 ± 0.1 kg/m3
- mass density ([3]; 348.15 K, x1 = 0.1731): 998.9 ± 0.2 kg/m3
- mass density ([3]; 348.15 K, x1 = 0.2831): 1010.9 ± 0.2 kg/m3
- mass density ([3]; 358.15 K, x1 = 0.06): 959.5 ± 0.1 kg/m3
- mass density ([3]; 358.15 K, x1 = 0.1062): 977.1 ± 0.2 kg/m3
- mass density ([3]; 358.15 K, x1 = 0.1731): 993 ± 0.2 kg/m3
- mass density ([3]; 358.15 K, x1 = 0.2831): 1006.1 ± 0.2 kg/m3
